In US10058559B2, “Treatment or prevention of an intestinal disease or disorder” (The United States of America, as represented by the …, priority 2014, dated 2018):
Like-named read-outs stand apart in the source and are kept apart here.

What was measured:
[1] = biological target: LRRK2 kinase (Homo sapiens, UniProt Q5S007); conditions: previously reported; cited from earlier work
[2] = in vivo; cited from earlier work
[3] = test system: 187 kinases; conditions: cited from earlier work
[4] = test system: BMDC from LRRK2 Tg mice; test: ZymD-induced cytokine production in BMDC from LRRK2 Tg mice; format: cell-based; conditions: for ZymD-induced cytokine production: FIG. 5a and 5b
From the text: Since several of the candidate susceptibility genes in IBD (e.g., NOD2 and […]) are likely to be causing disease via an abnormal innate immune response, it was reasoned that increased LRRK2 expression was leading to an enhanced inflammatory response initiated by a Pathogen Associated Molecular Patterns (PAMPs) in the gastrointestinal environment.
Furthermore, in rat microglia, LRRK2 inhibitors block TLR4-induced TNF-a and iNOS production. Based on these findings, whether LRRK2 inhibition can serve as a therapeutic target in IBD was investigated. First, ZymD-induced cytokine production in BMDC from LRRK2 Tg mice in the presence or absence of two LRRK2 inhibitors, LRRK2-IN-1 and CZC54252.

[5] = test system: human BMDC derived from Crohn's disease peripheral blood; test: ZymD-induced TNF-alpha production in human BMDC derived from Crohn's disease peripheral blood; format: cell-based; conditions: human cells
[6] = test system: BMDC from LRRK2 Tg mice; test: autophagy (Western blotting, LC3 puncta) in M. leprae- and ZymD-stimulated BMDC from LRRK2 Tg mice; format: cell-based
[7] = test system: DSS-colitis; test: DSS (dextran-sulfate)-colitis in mice; format: in vivo
From the text: In initial studies to evaluate global LRRK2 function in bowel inflammation, LRRK2-Tg mice (as well as LRRK2 KO mice) were subjected to DSS (dextran-sulfate)-colitis. […] In contrast, DSS-colitis in LRRK2 KO mice was slightly less severe than in control mice (FIG. 2a and FIG. 2b). This latter result differs from that reported by Liu et al. who found increased severity of DSS colitis in LRRK2 KO mice. This discrepancy is likely due to differences in the control mice used in the two studies: the experiments described herein used control mice that had been back-crossed for 9 generations, were housed in the same facility and exposed to the same microbiota. These studies of DSS-colitis thus indicate that increased expression of LRRK2 leads to an increased inflammatory response in experimental colitis.

[8] = test system: panel of 460 other kinases; conditions: cited from earlier work
[9] = test system: LRRK2 Ser910 and Ser935 phosphorylation; conditions: in vitro; cited from earlier work
[10] = test system: LRRK2 Ser910 and Ser935 phosphorylation; conditions: in peripheral tissues in vivo; cited from earlier work
[11] = test system: panel of 136 other kinases; conditions: cited from earlier work
[12] = cited from earlier work
[13] = test system: LRRK2 phosphorylation; conditions: mice, 30 mg/kg to 50 mg/kg i.p., in vivo; cited from earlier work
[14] = ZymD-induced, BMDC from LRRK2 Tg mice

Sequence of LRRK2 kinase (Q5S007 whole entry, species assumed): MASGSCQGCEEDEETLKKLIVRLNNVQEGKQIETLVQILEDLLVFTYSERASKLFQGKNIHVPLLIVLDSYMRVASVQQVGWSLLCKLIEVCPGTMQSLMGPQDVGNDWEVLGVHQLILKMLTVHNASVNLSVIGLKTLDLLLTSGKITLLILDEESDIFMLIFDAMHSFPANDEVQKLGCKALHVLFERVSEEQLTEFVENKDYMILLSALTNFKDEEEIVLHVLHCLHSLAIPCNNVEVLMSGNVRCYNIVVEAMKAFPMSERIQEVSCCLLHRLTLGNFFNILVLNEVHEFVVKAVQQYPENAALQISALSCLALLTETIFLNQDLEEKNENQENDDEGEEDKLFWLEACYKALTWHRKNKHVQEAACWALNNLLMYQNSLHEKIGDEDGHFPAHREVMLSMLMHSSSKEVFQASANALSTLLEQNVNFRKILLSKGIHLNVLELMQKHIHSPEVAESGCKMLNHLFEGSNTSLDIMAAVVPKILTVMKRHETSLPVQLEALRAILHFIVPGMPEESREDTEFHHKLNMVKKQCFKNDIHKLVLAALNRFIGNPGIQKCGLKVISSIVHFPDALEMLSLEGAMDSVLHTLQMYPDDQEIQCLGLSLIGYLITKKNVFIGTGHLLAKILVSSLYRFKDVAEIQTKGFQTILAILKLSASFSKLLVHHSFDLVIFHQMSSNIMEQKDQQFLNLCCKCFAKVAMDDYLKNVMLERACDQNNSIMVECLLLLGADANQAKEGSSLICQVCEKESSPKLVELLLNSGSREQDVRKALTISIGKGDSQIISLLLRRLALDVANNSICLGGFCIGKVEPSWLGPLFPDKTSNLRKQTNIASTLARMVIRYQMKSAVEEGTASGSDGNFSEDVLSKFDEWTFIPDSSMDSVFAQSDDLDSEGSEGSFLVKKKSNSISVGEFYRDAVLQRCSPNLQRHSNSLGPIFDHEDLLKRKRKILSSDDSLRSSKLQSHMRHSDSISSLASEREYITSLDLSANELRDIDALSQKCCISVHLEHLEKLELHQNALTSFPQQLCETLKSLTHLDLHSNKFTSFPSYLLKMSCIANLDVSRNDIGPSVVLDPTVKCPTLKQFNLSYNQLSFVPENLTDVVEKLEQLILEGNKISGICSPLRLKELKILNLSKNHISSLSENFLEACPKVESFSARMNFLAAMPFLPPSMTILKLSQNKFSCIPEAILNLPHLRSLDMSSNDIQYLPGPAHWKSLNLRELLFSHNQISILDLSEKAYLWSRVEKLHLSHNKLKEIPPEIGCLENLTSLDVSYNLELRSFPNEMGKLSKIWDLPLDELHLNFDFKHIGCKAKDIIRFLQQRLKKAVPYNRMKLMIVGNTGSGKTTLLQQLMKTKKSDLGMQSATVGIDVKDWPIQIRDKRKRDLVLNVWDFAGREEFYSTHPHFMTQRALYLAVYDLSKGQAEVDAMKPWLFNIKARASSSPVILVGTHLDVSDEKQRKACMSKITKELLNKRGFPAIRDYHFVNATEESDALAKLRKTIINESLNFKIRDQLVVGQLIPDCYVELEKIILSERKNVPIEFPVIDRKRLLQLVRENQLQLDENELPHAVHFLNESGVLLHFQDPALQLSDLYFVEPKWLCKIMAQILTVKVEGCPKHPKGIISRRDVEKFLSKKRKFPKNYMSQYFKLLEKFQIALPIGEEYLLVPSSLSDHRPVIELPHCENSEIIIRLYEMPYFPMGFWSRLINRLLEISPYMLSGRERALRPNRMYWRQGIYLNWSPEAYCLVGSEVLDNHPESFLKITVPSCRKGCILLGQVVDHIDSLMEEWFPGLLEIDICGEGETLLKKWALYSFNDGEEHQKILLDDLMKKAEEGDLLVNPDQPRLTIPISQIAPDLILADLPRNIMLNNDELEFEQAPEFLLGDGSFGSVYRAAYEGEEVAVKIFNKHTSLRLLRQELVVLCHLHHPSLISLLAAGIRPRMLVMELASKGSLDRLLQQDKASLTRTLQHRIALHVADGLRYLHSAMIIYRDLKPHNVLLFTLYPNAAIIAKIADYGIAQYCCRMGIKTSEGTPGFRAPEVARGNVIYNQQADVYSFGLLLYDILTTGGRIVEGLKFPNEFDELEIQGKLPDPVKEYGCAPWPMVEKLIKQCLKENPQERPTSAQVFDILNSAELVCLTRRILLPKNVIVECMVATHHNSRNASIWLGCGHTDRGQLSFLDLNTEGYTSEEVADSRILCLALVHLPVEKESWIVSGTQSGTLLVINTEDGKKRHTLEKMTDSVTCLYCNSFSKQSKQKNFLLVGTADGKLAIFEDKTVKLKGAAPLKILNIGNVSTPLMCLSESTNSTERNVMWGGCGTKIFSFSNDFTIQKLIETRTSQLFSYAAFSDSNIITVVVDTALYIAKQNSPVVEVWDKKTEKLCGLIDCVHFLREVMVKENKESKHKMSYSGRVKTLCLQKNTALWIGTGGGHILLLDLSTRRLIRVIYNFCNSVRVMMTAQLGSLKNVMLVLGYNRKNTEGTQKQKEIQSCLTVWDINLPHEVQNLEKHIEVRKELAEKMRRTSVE

Molecule: O=C1Nc2ccccc2/C1=C1/Nc2ccccc2/C1=N\O [Indirubin-3-monoxime]
- inhibitory activities of LRRK2 kinase [1]: inhibitory activities

Molecule: O=S(=O)(NCCNC/C=C/c1ccc(Br)cc1)c1cccc2cnccc12 [H-89]
- inhibitory activities of LRRK2 kinase [1]: inhibitory activities

Molecule: CCNc1nc(Nc2cc(F)c(C(=O)N3CCOCC3)cc2OC)ncc1C(F)(F)F [GNE-7915, (4-((4-(ethylamino)-5-(trifluoromethyl)pyrimidin-2-yl)amino)-2-fluoro-5-methoxyphenyl)(morpholino)methanone]
- brain penetration [2]: brain-penetrant
- selectivity (kinases) [3]: 1/187

Molecule: COc1cc(C(=O)N2CCC(N3CCN(C)CC3)CC2)ccc1Nc1ncc2c(n1)N(C)c1ccccc1C(=O)N2C [LRRK2-IN-1, 5,11-Dihydro-2-[[2-methoxy-4-[[4-(4-methyl-1-piperazinyl)-1-piperidinyl]carbonyl]phenyl]amino]-5,11-dimethyl-6H-pyrimido[4,5-b][1,4]benzodiazepin-6-one]
- ZymD-induced cytokine production ([4]; BMDC from LRRK2 Tg mice): greatly reduced
- inhibition of TNF-alpha, dose dependence [4, 14]: dose dependent
- production of pro-inflammatory cytokine mRNAs (TNF-alpha, TL1A, IL-23p19, IL-6 and IL-1beta mRNAs) [4, 14]: suppressed
- concentration required to suppress cytokine production [5]: 5 µM
- autophagy (Western blotting and quantitation of LC3 puncta) [6]: reversed inhibition of autophagy
- DSS-colitis severity ([7]; LRRK2-Tg mice): amelioration
- DSS-colitis severity ([7]; wild-type mice (so in the source)): ameliorate

Molecule: O=C(Nc1cccnc1)c1cc(-c2ccnc(F)c2)ccc1OCc1ccccc1 [GSK2578215A, 5-(2-Fluoro-4-pyridinyl)-2-(phenylmethoxy)-N-3-pyridinylbenzamide]
- selectivity for LRRK2 against a panel of 460 other kinases [8]: displays selectivity for LRRK2
- Ser910 and Ser935 phosphorylation [9]: blocks
- Ser910 and Ser935 phosphorylation [10]: blocks
- brain penetration [2]: brain penetrant

Molecule: O=C1Nc2ccc(I)cc2/C1=C/c1cc(Br)c(O)c(Br)c1 [GW5074]
- inhibitory activities of LRRK2 kinase [1]: inhibitory activities

Molecule: COc1cc(N2CCC(N3CCN(C)CC3)CC2)ccc1Nc1ncc(Cl)c(Nc2ccccc2S(=O)(=O)C(C)C)n1 [TAE684]
- inhibitory activities of LRRK2 kinase [1]: inhibitory activities

Molecule: N-[-[[5-Chloro-2-[[2-methoxy-4-(4-morpholinyl)phenyl]amino]-4-pyrimidinyl]amino]phenyl]methanesulfonamide hydrochloride [CZC54252]
- inhibition of TNF-alpha, dose dependence [4]: dose dependent
- ZymD-induced cytokine production ([4]; BMDC from LRRK2 Tg mice): greatly reduced
- production of pro-inflammatory cytokine mRNAs (TNF-alpha, TL1A, IL-23p19, IL-6 and IL-1beta mRNAs) [4, 14]: suppressed

Molecule: CNc1nc(Nc2ccc(C(=O)N3CCOCC3)cc2OC)ncc1Cl [HG-10-102-01, (4-(5-Chloro-4-(methylamino)pyrimidin-2-ylamino)-3-methoxyphenyl)(morpholino)methanone]
- activity toward a panel of 136 other kinases [11]: little activity
- cell permeability [12]: cell-permeable
- blood-brain-barrier crossing for LRRK2 phosphorylation inhibition [13]: can cross the blood-brain-barrier
